From ChEMBL document CHEMBL3797158, “Discovery of potent, reversible MetAP2 inhibitors via fragment based drug discovery and structure based drug design-Part 1” (Bioorg Med Chem Lett, 2016) come the findings set out here.

Broadly, the IC50 is the concentration that inhibits the measured activity by half. Low values mean higher potency, high ones lower potency. The term EC50 denotes the midpoint of the concentration-response curve. One may read the AUC as the area under the concentration-time curve, a measure of exposure. The term half-life denotes the time needed for the level to fall by half in the phase considered. The low end stands for fast loss, the high end for slow loss.

The target in one series is T1, Cytochrome P450 1A2 (Homo sapiens, UniProt P05177).
T1 sequence (P05177 whole entry): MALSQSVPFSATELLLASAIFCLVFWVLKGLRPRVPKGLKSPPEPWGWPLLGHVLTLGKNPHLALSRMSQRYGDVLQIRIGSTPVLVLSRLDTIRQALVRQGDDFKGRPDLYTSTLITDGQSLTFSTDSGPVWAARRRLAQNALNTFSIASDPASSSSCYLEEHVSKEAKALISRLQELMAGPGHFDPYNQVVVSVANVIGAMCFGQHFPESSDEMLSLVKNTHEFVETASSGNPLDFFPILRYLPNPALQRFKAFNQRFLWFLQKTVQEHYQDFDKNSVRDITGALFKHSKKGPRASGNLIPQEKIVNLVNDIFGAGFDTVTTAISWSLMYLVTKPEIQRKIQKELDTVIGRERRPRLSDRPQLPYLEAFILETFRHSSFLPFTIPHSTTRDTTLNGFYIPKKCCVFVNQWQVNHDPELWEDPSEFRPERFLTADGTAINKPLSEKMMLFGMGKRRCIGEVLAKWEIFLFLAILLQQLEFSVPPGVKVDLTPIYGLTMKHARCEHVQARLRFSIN
Nature of the series: Inhibition of human CYP1A2 expressed in Escherichia coli DH5-alpha. It is filed as ADME.

The target in series [1] is Methionine aminopeptidase 2 (Homo sapiens, UniProt P50579). Nature of the series: Inhibition of MetAP2 in HUVEC assessed as accumulation of N-Met-14-3-3gamma after 24 hrs by Western blot method. The format is cell-based.
Sequence of Methionine aminopeptidase 2 (P50579 whole entry): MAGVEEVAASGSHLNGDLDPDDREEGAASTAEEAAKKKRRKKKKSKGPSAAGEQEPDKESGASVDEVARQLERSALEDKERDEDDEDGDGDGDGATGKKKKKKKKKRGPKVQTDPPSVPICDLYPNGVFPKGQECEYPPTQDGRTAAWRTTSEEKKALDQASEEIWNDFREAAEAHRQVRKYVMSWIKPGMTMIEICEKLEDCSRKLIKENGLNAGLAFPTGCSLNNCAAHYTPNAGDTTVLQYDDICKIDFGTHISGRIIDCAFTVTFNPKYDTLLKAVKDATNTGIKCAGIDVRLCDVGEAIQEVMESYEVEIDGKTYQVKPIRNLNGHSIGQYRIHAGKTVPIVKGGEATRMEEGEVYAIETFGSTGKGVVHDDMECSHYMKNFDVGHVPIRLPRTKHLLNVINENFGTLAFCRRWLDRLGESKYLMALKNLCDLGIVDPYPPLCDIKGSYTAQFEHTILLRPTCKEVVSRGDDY
Series [2] is described as follows: Volume of distribution in diet-induced obese mouse at 5 mg/kg, po or 1 mg/kg, iv. The conditions noted are these: in vivo. It is filed as ADME, organism-based.
Series [3] concerns Mus musculus. Nature of the series: AUC in diet-induced obese mouse at 5 mg/kg, po. Particulars: in vivo. It is filed as ADME, organism-based.
Series [4] concerns Mus musculus. Nature of the series: Antiobesity activity in po dosed diet-induced obese mouse assessed as body weight loss administered as qd for 28 days. It is filed as functional, organism-based.
Series [5] can be described thus: Half life in diet-induced obese mouse at 5 mg/kg, po or 1 mg/kg, iv. The conditions noted are these: in vivo. The format is ADME, organism-based.
For series [6], the system named is Mus musculus. Nature of the series: Oral bioavailability in diet-induced obese mouse at 5 mg/kg. It is filed as ADME, organism-based. Particulars: in vivo.

The structures appear in SMILES notation.

`Cc1cc(C(=O)NCCO)ncc1-c1cc(C(F)(F)F)cc2[nH]ncc12` showed an IC50 on Cytochrome P450 1A2 of over 50.1 µM.
Still for that read-out and setting: under `COc1cc(C(=O)NCCO)ccc1-c1cc(C(F)(F)F)cc2[nH]ncc12` stands over 50.1 µM; under `CNC(=O)c1ccc(-c2cc(C(F)(F)F)cc3[nH]ncc23)c(OC)c1`, 15.8 µM.
With `FC(F)(F)c1cc(-c2ccc3nccn3c2)c2cn[nH]c2c1`, the 50% inhibitory concentration (IC50) on Cytochrome P450 1A2 was 0.316 µM.
Still for that read-out and setting: as for `O=C(NCCO)c1ccc(-c2cc(C(F)(F)F)cc3[nH]ncc23)c(F)c1`, the figure is over 50.1 µM.
On to `Cc1nc(N2CC[C@H](O)C2)ncc1-c1cc(C(F)(F)F)cc2[nH]ncc12`, for which the EC50 in series [1] is 0.121 µM. The half-inhibitory concentration (IC50) against Cytochrome P450 1A2 is over 50.1 µM.
As for `Cc1nc(N2CC[C@@H](O)C2)ncc1-c1cc(C(F)(F)F)cc2[nH]ncc12` [TP-004], the EC50 in series [1] worked out at 0.015 µM. Also, the Vd in series [2] was 1.25 L/kg. Moreover, the exposure (AUC) with Mus musculus [3] stood at 15084 ng·h/mL. Besides, in the series on Mus musculus [4], the Activity result was “Dose-dependent effect”. At Cytochrome P450 1A2, this molecule had an IC50 of over 50.1 µM. In series [5], this molecule gave a half-life of 2 h. In the series on Mus musculus [6], this molecule showed an F of 58%.
